The source of these data is patent publication US20070078083A1, “MODULATION OF NEUORGENESIS BY HDac INHIBITION” (BrainCells, Inc., priority 2005, published 2007).

One assay addresses human mGlu2 (Homo sapiens, UniProt Q14416). Conditions: agonist; low nanomolar range; read-out: EC50 values against human mGlu2 receptors in vitro; cited from earlier work.
The next assay deals with human mGlu3 (Homo sapiens, UniProt Q14832). The note with it: agonist; low nanomolar range; read-out: EC50 values against human mGlu3 receptors in vitro; cited from earlier work.
Assay [1] concerns KA, AMPA, and NMDA iGlu receptors. Conditions: cited from earlier work.
Assay [2] concerns rat NeuroD1, GluR2, NFH and GAP43 promoters. The assay can be described thus: In vitro rodent gene reporter assay in rNSC. It is filed as cell-based. Conditions: 2 days incubation. From the text: Briefly, cultured rodent neural stem cells (rNSC) were transfected by electroporation with a vectors containing promoters specific for the rat NeuroD1, GluR2, NFH and GAP43 genes linked to the fluorescent reporter protein DsRed. All gene reporter constructs were cloned in the same lentiviral vector backbone, and mixed with Nucleofactor solution for electroporation. A GFP vector control was used in parallel to visualize effectiveness of electroporation. Transfected rNSCs were then suspended in test media containing varying concentrations of the HDac inhibitors trichostatin A, valproic acid, MS-275 or apicidin, and a mixture of 0.5 μg renilla luciferase and 5 μg promoter-specific […] luciferase. The cells were incubated in 5% CO2 at 37° C. for 2 days, and then lysed, whereupon the cell extracts were read on a Tecan Genios Pro reader to detect the promoter-specific activation of the reporter constructs.
For orientation: In a reporter assay the amount or activity of a reporter protein is the signal.

The subject of assay [3] is human neural stem cells (hNSCs). The assay can be described thus: Astrocyte differentiation of hNSCs (GFAP staining). It is filed as cell-based. Conditions: cultured hNSCs. From the text:
Results are shown in FIGS. 2 and 11, which show the lack of astrocyte differentiation of human neural stem cells in the presence of trichostatin A and valproic acid, respectively.

Assay [4] shares this test system. Put plainly: Neuronal differentiation of human neural stem cells (TUJ-1 staining). It is filed as cell-based. The note with it: for differentiation along a neuronal lineage (in words): hNSCs.
The test system is the same in assay [5]. The assay can be described thus: Anti-proliferative effects on human neural stem cell clusters (area over fourteen days). Conditions: hNSC clusters after 14 days; basal media control 164%. It is filed as cell-based. An excerpt: 7, 2006 (incorporated by reference). […] Cell clusters were imaged and their area measured over fourteen days. […] As the results described in Example 3 indicate, reduction in growth is not due to increased toxicity or reduced survival, and therefore the observed reduced growth of the cell clusters results from decreased proliferation of human neural stem cells in the presence of the HDac inhibitor.

The subject of assay [6] is neural stem and/or progenitor cells in the dentate gyrus. The assay can be described thus: In vivo chronic dosing study, BrdU-positive cells in dentate gyrus. Conditions: male Fischer F344 rats, 300 mg/kg for 28 days, vs vehicle. Further details: species or system rat. As to the method: Male Fischer F344 rats were treated with 300 mg/kg of valproic acid for 28 days, and then anesthetized and killed by transcardial perfusion of 4% paraformaldehyde at day 28. Brains were rapidly removed and stored in 4% paraformaldehyde for 24 hours and then equilibrated in phosphate buffered 30% sucrose. Free floating 40 micron sections were collected on a freezing microtome and stored in cyroprotectant. Antibodies against BrdU and cells types of interest (e.g., neurons, astrocytes, oligodendrocytes, endothelial cells) were used for detection of cell survival and differentiation. […] The proportion of BrdU cells displaying a lineage-specific phenotype was determined by scoring the co-localization of cell phenotype markers with BrdU using confocal microscopy. […] When possible, 100 or more BrdU-positive cells were scored for each maker per animal. Each cell was manually examined in first full “z”-dimension and only those cells for which the nucleus was unambiguously associated with the lineage-specific marker were scored as positive. The total number of BrdU-labeled cells per hippocampal granule cell layer and subgranular zone were determined using diaminobenzadine stained tissues. Overestimation was corrected using the Abercrombie method for nuclei with empirically determined average diameter of 13 um within a 40 um section.

A further assay deals with mGluR3 (Homo sapiens, UniProt Q14832). Conditions: antagonist; read-out: IC50 value against mGluR3; cited from earlier work.
Assay [7] deals with Group I or Group III receptors. The note with it: at sub-mM concentrations; cited from earlier work.
For another assay, the target named is mGluR2 (Homo sapiens, UniProt Q14416). Conditions: antagonist; read-out: IC50 value against mGluR2; cited from earlier work.

Structures are written as SMILES.

Sequence of human mGlu3 (Q14832 23-879): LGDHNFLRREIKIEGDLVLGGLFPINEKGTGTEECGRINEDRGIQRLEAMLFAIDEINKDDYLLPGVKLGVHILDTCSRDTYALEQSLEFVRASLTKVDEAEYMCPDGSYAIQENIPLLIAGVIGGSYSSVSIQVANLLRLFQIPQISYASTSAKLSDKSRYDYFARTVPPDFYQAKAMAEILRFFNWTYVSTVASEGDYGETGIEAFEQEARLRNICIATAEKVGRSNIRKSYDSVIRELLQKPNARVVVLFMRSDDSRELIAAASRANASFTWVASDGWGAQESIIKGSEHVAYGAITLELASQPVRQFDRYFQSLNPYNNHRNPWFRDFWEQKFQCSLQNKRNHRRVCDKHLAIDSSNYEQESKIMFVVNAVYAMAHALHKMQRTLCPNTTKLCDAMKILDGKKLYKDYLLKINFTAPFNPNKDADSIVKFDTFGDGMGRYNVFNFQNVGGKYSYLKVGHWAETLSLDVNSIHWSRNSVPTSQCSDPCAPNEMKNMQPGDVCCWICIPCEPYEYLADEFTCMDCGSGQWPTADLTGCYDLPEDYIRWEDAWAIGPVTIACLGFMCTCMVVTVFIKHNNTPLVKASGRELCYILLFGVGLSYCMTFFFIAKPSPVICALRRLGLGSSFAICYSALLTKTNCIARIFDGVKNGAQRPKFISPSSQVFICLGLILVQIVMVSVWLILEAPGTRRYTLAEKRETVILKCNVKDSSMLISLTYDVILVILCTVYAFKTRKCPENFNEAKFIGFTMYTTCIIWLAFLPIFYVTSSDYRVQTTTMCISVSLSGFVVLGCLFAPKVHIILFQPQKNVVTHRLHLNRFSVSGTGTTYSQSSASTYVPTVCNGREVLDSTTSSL
Sequence of mGluR3 (Q14832 23-879): as above
Sequence of human mGlu2 (Q14416 19-872): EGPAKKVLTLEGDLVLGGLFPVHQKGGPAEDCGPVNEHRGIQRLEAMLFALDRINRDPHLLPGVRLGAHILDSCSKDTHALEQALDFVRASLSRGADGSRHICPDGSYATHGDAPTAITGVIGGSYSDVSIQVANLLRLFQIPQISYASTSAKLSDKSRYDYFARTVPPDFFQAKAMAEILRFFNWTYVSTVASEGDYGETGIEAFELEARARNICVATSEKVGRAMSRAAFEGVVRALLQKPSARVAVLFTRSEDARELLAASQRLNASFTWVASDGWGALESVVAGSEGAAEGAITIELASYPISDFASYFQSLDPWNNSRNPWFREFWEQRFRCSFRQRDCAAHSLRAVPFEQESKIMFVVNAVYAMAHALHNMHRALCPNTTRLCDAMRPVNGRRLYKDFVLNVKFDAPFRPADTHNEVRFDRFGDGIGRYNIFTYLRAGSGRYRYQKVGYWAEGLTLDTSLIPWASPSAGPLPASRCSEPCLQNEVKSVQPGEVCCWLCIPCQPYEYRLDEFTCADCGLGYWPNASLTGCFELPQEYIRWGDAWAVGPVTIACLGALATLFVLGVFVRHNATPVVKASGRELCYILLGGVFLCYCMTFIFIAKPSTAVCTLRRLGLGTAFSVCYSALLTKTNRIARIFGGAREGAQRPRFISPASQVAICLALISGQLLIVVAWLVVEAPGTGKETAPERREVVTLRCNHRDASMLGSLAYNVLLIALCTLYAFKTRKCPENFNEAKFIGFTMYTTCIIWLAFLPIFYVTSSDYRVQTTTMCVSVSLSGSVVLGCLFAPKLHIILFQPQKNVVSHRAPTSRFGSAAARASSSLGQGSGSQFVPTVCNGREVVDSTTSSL
Sequence of mGluR2 (Q14416 19-872): as above

`N[C@@]1(C(=O)O)CO[C@H]2[C@H](C(=O)O)[C@H]21` [LY379268, (−)-2-Oxa-4-aminobicyclohexane-4,6-dicarboxylic acid]: the EC50 on human mGlu2 and at human mGlu3 was below 0.01 µM in each case.
On to `N[C@](CC1c2ccccc2Oc2ccccc21)(C(=O)O)[C@H]1C[C@@H]1C(=O)O` [LY341495, (2S)-2-amino-2-(1S,2S-2-carboxycycloprop-1-yl)-3-(xanth-9-yl) propanoic acid], for which the “activity against KA, AMPA, and NMDA iGlu receptors” value in [1] was “substantially inactive”.
As to `Nc1ccccc1NC(=O)c1ccc(CNC(=O)OCc2cccnc2)cc1` [MS-275], in assay [2], the “expression of promoters for the neurofilament high (NFH) and growth associated protein 43 (GAP43) genes” value is reported as “promote expression”; the “neurogenic activity, activation of the rat NeuroD1, GluR2, NFH and GAP43 promoters” value was “neurogenic”.
Take `CC(/C=C/C(=O)NO)=C\[C@@H](C)C(=O)c1ccc(N(C)C)cc1` [Trichostatin A, trichostatin A]: the EC50 (commonly the midpoint of the concentration-response curve) is above 0.0316 µM in assay [3] (highest concentration tested approximately 31.6 nM) and around 0.00345 µM in assay [4] (cultured hNSCs, two experiments (Run A, Run B), normalized to neuronal positive control). In addition, the “differentiation along a neuronal lineage (in words)” value in assay [4] was “permits differentiation of cells along a neuronal lineage”.
In turn, `CCCC(CCC)C(=O)O` [Valproic acid, 2-propylpentanoic acid] yielded an EC50 in assay [3] (Homo sapiens, Neural stem cell, highest tested concentration approximately 10.0 μM) above 10 µM. Also, the “area occupied by cells, percent of the starting area” value in assay [5] is 86%. The “proliferation in the dentate gyrus (proportion of BrdU-positive cells)” value in assay [6] is given as “significantly decreased proliferation”. Besides, in assay [2], the “expression of promoters for the neurofilament high (NFH) and growth associated protein 43 (GAP43) genes” value is on record as “promote expression”; the “neurogenic activity, activation of the rat NeuroD1, GluR2, NFH and GAP43 promoters” value is “neurogenic”. In addition, the “differentiation along a neuronal lineage (in words)” value in assay [4] is listed as “continues to promote neuronal differentiation”.
`NC1(C(=O)O)CCc2cc(P(=O)(O)O)ccc21` (racemic) [APICA, (RS)-1-amino-5-phosphonoindan-1-carboxylic acid]: the IC50 at mGluR3 and on mGluR2 was around 30 µM each time. In addition, the “activity against Group I or Group III receptors” value in [7] is on record as “no appreciable activity”.
